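Five compound concentrations were applied to cells in 96-well plates for 48 hours; endpoints were derived by simple linear interpolation of the resulting dose-response curve. Abbreviation: GI50, concentration required for 50% inhibition of growth. TGI: total growth inhibition.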
What was measured:
Assay in all cases: inhibition of tumour cell growth, NCI panel, 48 h
NCI-H522 lung = test system: NCI-H522 lung
NCI-H23 lung = test system: NCI-H23 lung
UACC-62 melanoma = test system: UACC-62 melanoma
M14 melanoma = test system: M14 melanoma
TK-10 renal = test system: TK-10 renal
NCI-H460 lung = test system: NCI-H460 lung
M19-MEL melanoma = test system: M19-MEL melanoma
OVCAR-4 ovarian = test system: OVCAR-4 ovarian
MOLT-4 leukemia = test system: MOLT-4 leukemia
HCC-2998 colon = test system: HCC-2998 colon

SMILES	GI50 (NCI-H522 lung) [µM]	TGI (NCI-H522 lung) [µM]	GI50 (NCI-H23 lung) [µM]	TGI (NCI-H23 lung) [µM]	GI50 (UACC-62 melanoma) [µM]	TGI (UACC-62 melanoma) [µM]	GI50 (M14 melanoma) [µM]	TGI (M14 melanoma) [µM]	GI50 (TK-10 renal) [µM]	TGI (TK-10 renal) [µM]	GI50 (NCI-H460 lung) [µM]	TGI (NCI-H460 lung) [µM]	GI50 (M19-MEL melanoma) [µM]	TGI (M19-MEL melanoma) [µM]	GI50 (OVCAR-4 ovarian) [µM]	TGI (OVCAR-4 ovarian) [µM]	TGI (MOLT-4 leukemia) [µM]	TGI (HCC-2998 colon) [µM]	GI50 (HCC-2998 colon) [µM]	GI50 (MOLT-4 leukemia) [µM]
O=[N+]([O-])c1ccc(Sc2c3ccccc3nc3cc(Cl)ccc23)cc1	> 100	> 100	> 100	> 100	> 100	> 100	> 100	> 100	> 100	> 100	> 100	> 100	> 100	> 100	> 100	> 100	> 100	–	–	–
Cc1nc(C(N)=S)sc1C(=O)/C=C/c1c(O)ccc2ccccc12	–	> 63	–	> 100	–	> 87.9	–	> 100	–	> 100	–	> 100	–	19	–	> 100	> 69	> 100	–	–
CC(C)(Oc1ccc(/C=C/C(=O)c2ccc(Cl)cc2)cc1)C(=O)Nc1c(Cl)cccc1Cl	–	–	–	40.9	–	38	–	36.7	–	> 100	–	98.3	–	27.1	–	> 100	96.5	51.5	–	–
CCCCN(CC)CC(C(C)=O)c1c(O)c2ccccc2oc1=O (configuration not stated)	–	> 100	–	> 100	–	> 100	–	> 100	–	> 100	–	> 100	–	> 100	–	> 100	> 100	> 100	–	–
C/C(=N\NC(=O)CC#N)c1c(O)cc(C)oc1=O	–	–	–	> 100	–	> 100	–	> 100	–	> 100	–	> 100	–	> 100	–	> 100	> 100	> 100	–	–
O=C(O)c1ccc(C2C(=O)N[C@@H]3CCC[C@H]23)cc1 (some centres not stated)	–	> 100	–	> 100	–	> 100	–	> 100	–	> 100	–	> 100	–	> 100	–	> 100	> 100	> 100	–	–
O=[N+]([O-])c1ccc(-c2ccc(-c3csc(Nc4ccccc4)n3)o2)cc1	–	32	–	36.8	–	37.2	–	38	–	33.3	–	> 67	–	> 81.6	–	32	46.2	56.5	–	–
C=C(C)C1C/C=C(/C)CCCC2(CCC3=C(CC(C(=C)C)C/C=C(/C)CCC3)O2)C(=O)C1 (configuration not stated)	–	> 100	–	> 100	–	> 100	–	> 100	–	> 100	–	> 100	–	> 100	–	> 100	> 100	> 100	–	–
CC(C)(C)C(=O)[CH-]C(=O)C(C)(C)C.CC(C)(C)C(=O)[CH-]C(=O)C(C)(C)C.CN(C)c1ccc([O-])cc1.CN(C)c1ccc([O-])cc1.[Ti+4]	> 100	> 100	> 100	> 100	> 100	> 100	60.8	> 100	–	–	> 100	> 100	79.2	> 100	> 100	> 100	> 100	> 100	> 100	> 100
C[N+](C)(C)CC1CCCCC1O (configuration not stated)	–	> 100	–	> 100	–	> 100	–	> 100	–	> 100	–	> 100	–	> 100	–	> 100	> 100	> 100	–	–
CCOC(=O)C1SC(=Nc2ccc(Cl)cc2)N=C1C (configuration not stated)	–	33	–	34.9	–	–	–	–	–	64.4	–	45.1	–	33	–	56.1	48.8	31.5	–	–
COc1ccc(C(=O)NCCN(C)C)c2nc3ccccc3nc12	–	> 100	–	17.9	–	17.8	–	> 34.5	–	76.7	–	–	–	9.9	–	16.8	7.3	26.3	–	–
CCCCN(CCCC)C(=O)/C(CC(=O)c1cccc2ccccc12)=N\NC(=O)c1cc2ccccc2cc1O	–	–	–	45.6	–	23.3	–	69.8	–	> 100	–	44.2	–	> 100	–	70.5	42.9	43.8	–	–
O=C(/C=C/c1ccccc1)c1ccc(NCc2nc3ccccc3[nH]2)cc1	–	14.7	–	11	–	21.4	–	21.4	–	24	–	12	–	14.7	–	22.8	32.3	4.2	–	–
Cn1c2c(c3ccccc31)CCN(CCN1CCN(c3cccc(Cl)c3)CC1)C2=O	–	> 100	–	> 100	–	> 100	–	> 100	–	> 100	–	–	–	> 100	–	–	> 100	–	–	–
Cc1c2ccccc2cc2ccc3oc([N+](=O)[O-])cc3c12	–	–	–	–	–	> 100	–	> 100	–	> 100	–	> 100	–	> 100	–	> 100	> 100	> 100	–	–
CN(C)C(=S)/N=c1\ssc(=S)n1Cc1ccncc1	–	2.99	–	60.7	–	25.5	–	62.9	–	80.3	–	31.5	–	27.8	–	95.2	49.3	57.3	–	–
C/C(=N/NC(=O)C[N+](C)(C)C)C(CN(C)C)C(=O)Nc1ccccc1 (configuration not stated)	–	> 100	–	> 100	–	> 100	–	> 100	–	> 100	–	> 100	–	> 100	–	> 100	> 100	> 100	–	–
Cc1ccccc1C(=O)N1CCN(C(=O)c2ccccc2C)CC1	–	> 100	–	> 100	–	> 100	–	> 100	–	> 100	–	> 100	–	> 100	–	> 100	> 100	> 100	–	–
CCOC(=O)/C(C#N)=C\C=C(/Cl)c1ccc(Cl)cc1	14	39.9	12.2	26.9	18.7	38.9	14.8	31.4	16.2	35.2	31	> 77.5	–	–	27.8	> 76.4	> 100	31.1	16.1	8.75

Source: PubChem BioAssay (NCI)
